pEC50, pIC50: −log10 of the molar value.
What was measured:
CB2 receptor [1] = molecular target: T1, CB2 receptor (Homo sapiens, UniProt P34972); test: Modified functional cell-based assay (Beta-Glo luminescence), CB2 receptor; details: CB2 EC50 (Receptor Functional Activity), one sample per compound, Cpd 237 n=3
T1 construct: expressed in transfected cells
Description: (§1) Additional functional activity studies were performed with minor modifications. Beta galactosidase activity was quantified using the luminescent Beta-Glo Assay System (Promega Corp. Madison, Wis.) and an Orion Microplate Luminometer (Berthold Detection Systems, Oak Ridge, Tenn.). The EC50 values were calculated using GraphPad Prism and a four parameter logistic equation.
(§2) The functional activity EC50 value for compounds tested (shown in Table 8) were obtained from studies in which varying compound concentrations were used. With the exception of Cpd 237 (n=3), one sample for each compound was tested.

CB1 receptor [2] = molecular target: T2, CB1 receptor (Homo sapiens, UniProt P21554); test: Modified functional cell-based assay (Beta-Glo luminescence), CB1 receptor; details: CB1 EC50 (Receptor Functional Activity), one sample per compound, Cpd 237 n=3
T2 construct: expressed in transfected cells
Description: as §1, §2

CB1 receptor [3] = molecular target: T2, CB1 receptor; test: Binding assay for CB1 agonists or inverse agonists (SK-N-MC membranes, [3H]-CP-55,940); details: for CB1 receptor binding percent inhibition: test concentration 0.2 μM (footnote 2), 0.2 µM
How it was run: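 Membranes from SK-N-MC cells stably expressing human CB1 incubated with compound and [3H]-CP-55,940 ([…]) for 90 min at 30° C in Tris-HCl pH 7.5, MgCl2, EDTA, fatty-acid-free BSA. Non-specific binding defined with 10 uM WIN 55,212; filtration, scintillation count; IC50 by linear regression.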

CB2 receptor [4] = molecular target: T1, CB2 receptor; test: Binding assay for CB2 agonists or inverse agonists (SK-N-MC membranes, [3H]-CP-55,940); details: for CB2 receptor binding percent inhibition: test concentration 0.2 μM (footnote 2), 0.2 µM
How it was run: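 Membranes from SK-N-MC cells stably expressing human CB2 were incubated with radioligand and test compounds for 90 min at 30 °C in Tris-HCl buffer, pH 7.5, with MgCl2, EDTA and fatty-acid-free BSA. Filter-bound radioactivity was counted; IC50 was derived by linear regression of percent inhibition.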

CB1 receptor [5] = molecular target: T2, CB1 receptor; test: cell-based; details: CB1 Receptor Functional Agonist EC50, SK-N-MC cells, forskolin induced β-galactosidase activity
How it was run: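 SK-N-MC cells stably co-expressing human CB1 and a CRE-β-galactosidase reporter; forskolin-induced β-gal activity measured after compound treatment, as % of vehicle-treated cells (100%). EC50 by linear regression from concentration series; otherwise % change at a single concentration.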

CB2 receptor [6] = molecular target: T1, CB2 receptor; test: Functional cell-based assay, CB2 receptor mediated change in CRE β-gal expression (SK-N-MC cells); details: CB2 Receptor Functional Agonist EC50, forskolin induced β-galactosidase activity, SK-N-MC cells
Source text: The CB1 and CB2 receptors are G-protein coupled receptors (GPCR), which influence cell function via the Gi-protein. These receptors modulate the activity of intracellular adenylate cyclase, which in turn produces the intracellular signal messenger cyclic-AMP (cAMP).
At baseline, or during non-ligand bound conditions, these receptors are constitutively active and tonically suppress adenylate cyclase activity. The binding of an agonist causes further receptor activation and produces additional suppression of adenylate cyclase activity. The binding of an inverse agonist inhibits the constitutive activity of the receptors and results in an increase in adenylate cyclase activity.
By monitoring intracellular adenylate cyclase activity, the ability of compounds to act as agonists or inverse agonists can be determined.
Test compounds were evaluated in SK-N-MC cells which, using standard transfection procedures, were stably transfected with human cDNA for pcDNA3-CRE β-gal and pcDNA3 CB1 receptor (human) or pcDNA3 CB2 receptor (human). By expressing CRE β-gal, the cells produced β-galactosidase in response to CRE promoter activation by cAMP. Cells expressing CRE β-gal and either the human CB1 or CB2 receptor will produce less β-galactosidase when treated with a CB1/CB2 agonist and will produce more β-galactosidase when treated with a CB1/CB2 inverse agonist.
The cells were grown in 96-well plates under standard cell culture conditions at 37° C. in a 5% CO2 atmosphere and culture media (wherein the media was supplemented with 2 mM L-glutamine, […] sodium pyruvate, 10% FBS (fetal bovine serum) and antibiotics).
For cells expressing CRE β-gal and the CB2 receptor, CB2 agonists reduced β-galactosidase activity in a dose-dependent manner and CB2 inverse agonists increase β-galactosidase activity in a dose-dependent manner.
The change in forskolin induced β-galactosidase activity was determined by setting a vehicle treated cell's activity value at 100% and expressing the β-galactosidase activity measured in a corresponding compound treated cell as a percent of the vehicle treated cell activity.
The EC50 value for functional activity for compounds tested was calculated by linear regression and was obtained from studies in which varying compound concentrations were used.

Male CD-1 mice [7] = test: Oil of mustard induced colitis model; type: in vivo; details: Therapeutic Regimen, 5 mg/kg oral; 5 mg/kg
Source text: In the distal colon, the oil of mustard colitis model is characterized by a discontinuous pattern of mucosal epithelial damage, submucosal edema, infiltration of inflammatory cells (including macrophages, neutrophils and lymphocytes) into the mucosa and submucosa, increased wet weight of the colon, shrinkage of the colon length, diarrhea and apparent inflammation (see, Kimball E. S., Palmer J. M., D'Andrea M. R., Homby P. J. and Wade P. R., Acute colitis induction by oil of mustard results in later development of an IBS-like accelerated upper GI transit in mice, Am. J Physiol. Gastrointest. Liver Physiol., 2005, 288: G 1266-1273).
Male CD-1 mice (Charles River Laboratories, Kingston, N.C.) (9-11 weeks old) and fresh oil of mustard (OM) (allyl isothiocyanate, 98% purity, Sigma-Aldrich St. Louis, Mo.) were used.
The mice (9 per treatment group) were briefly anesthetized with ketamine/xylasine (Sigma, St. Louis, Mo.) and a solution of 0.5% OM in 30% ethanol (50 μL) was administered intracolonically (to a depth of 4 cm) via syringe (equipped with a ball-tipped 22 G needle).
A test compound was orally administered one day prior to colitis induction for assessing a prophylactic regimen or one day post-induction for assessing a therapeutic regimen. A test compound was orally administered daily thereafter. Two days after OM administration, the last test compound dose was administered.
Three days after OM administration, the animals were sacrificed. The colons were resected, examined for signs of inflammation, weighed after removing fecal contents and the length from the aboral end of the cecum to the anus was measured. The fecal contents were examined for signs of diarrhea. The distal colon between the 1st and the 4th centimeter was removed and placed in 10% neutral buffered formalin for histological analysis.
The macroscopic observations of colon inflammation (a measure of colon damage), colon weight and length and stool consistency and appearance were assigned a score and used to evaluate colitis severity.
The four observation scores for each colon were combined, whereby a combined score of 0 represents a normal colon and a combined score of 15 represents a maximally affected colon. Statistical analyses were performed in Graphpad Prism 4.0 using ANOVA.
Histological analyses of tissues consisted of staining paraffin-embedded tissue sections with hematoxylin-eosin dye. The tissues were examined using light microscopy by an investigator who was blinded to the sample groups.
The microscopic observations of epithelial damage, cellular infiltration and damage or alteration of smooth muscle architecture (a measure of muscle damage) were assigned a score and used to evaluate colitis severity.
The scores for each colon were combined, whereby a combined score of 0 represents a normal colon and a combined score of 9 represents a maximally affected colon. Statistical analyses were performed in Graphpad Prism 4.0 using ANOVA.
The Macroscopic Score and Microscopic Score results for each treatment group in the prophylactic and therapeutic regimens were each combined into a mean score and expressed as % inhibition of colitis (% Inh). Test (#) represents the number of experiments at each dose level.

Male CD-1 mice [8] = test: Postoperative inflammatory ileus, microscopic myeloperoxidase histological examination; type: in vivo; details: Surgical Manipulation, dose 1 mg/kg, 24 hr post-laparotomy, mean ± SE
Description: (§3) Male CD-1 mice were anesthetized by inhaled isoflurane and prepared for surgery. The abdomen was shaved of hair and treated with antiseptic solution. The animal was then covered with a surgical drape, leaving the abdomen exposed. A mid-line laparotomy was performed, and the entire small intestine was exteriorized onto the sterile drape. Using two moistened, sterile, cotton-tipped applicators, the small intestine was then gently compressed along its length from the ligament of Treitz to the ileo-cecal junction. The small intestine was then returned to the abdominal cavity and the incision closed by two layers of sutures.
(§4) Age-matched mice were randomly assigned to groups (6 animals per group) and injected intraperitoneally (i.p.) with “vehicle” (a mixture of 5% ethanol/5% Tween80/90% of 5% dextran in water w/v) containing various doses of a test compound 1 hr prior to laparotomy. The second group was injected intraperitoneally with vehicle. The third group was administered intragastrically (1 mg/kg) a mixture (1 mg/mL) of dexamethasone in 20% hydroxypropyl methyl dextran in water, once per day for two days prior to surgery and 5 hrs post-laparotomy. The fourth group received no intervention and served as naïve controls.
Microscopic histological examination was performed on harvested tissues 24 hr post-laparotomy. […] Hanker-Yates reagent (Polysciences Inc.) forms an insoluble, blue-black polymer in the presence of hydrogen peroxide and peroxidase enzyme activity. Segments of mid small bowel were collected from the centrifuge tubes described in the previous section. Whole mounts of the muscle layer were prepared by opening the tube of bowel along the mesenteric border and pinning the tissue flat in a Sylgard™ lined Petri dish with the mucosal surface facing upward. The tissue was stretched to 1.5 times its length and 2.5 times its width, and the mucosa removed by fine dissection. The remaining muscularis whole mounts were then fixed with 100% ethanol for 45 min, washed 3 times with PBS, and incubated for 20 min in PBS containing 0.1% hydrogen peroxide and 1 mg/ml Hanker-Yates reagent (Polysciences, Inc). The reagent is polymerized in the presence of hydrogen peroxide and peroxidase activity to form a blue-black deposit. Following a second wash with PBS, the whole mounts were mounted on glass slides, cover-slipped, and viewed on an optical microscope. Myeloperoxidase containing leukocytes were counted in 6 to 8 adjacent 200× optical fields, and the mean cell counts were calculated and recorded.
The presence of myeloperoxidase (MPO) positive immune cells in the intestinal muscularis is rare in normal animals.

Male CD-1 mice [9] = test: Postoperative inflammatory ileus, upper gastrointestinal transit (FITC-dextran, Geometric Center); type: in vivo; details: Surgical Manipulation, dose 1 mg/kg, 24 hr post-laparotomy, mean ± SE; scale 1 to 15
Description: as §3, §4
Upper gastrointestinal transit was measured 24 hr post-laparotomy. Mice were fed a test meal consisting of 150 μL of FITC-dextran solution (5 mg/mL of 70,000 molecular weight dextran conjugated to fluorescein-isothiocyanate in 0.5% hydroxypropyl methylcellulose/deionized water) administered intragastrically by an 18 gauge feeding tube. Following oral administration of the FITC-dextran test meal, animals were returned to their home cages. Following a 45 min test period, mice were euthanized by isoflurane overdose and exsanguination. The entire gastrointestinal tract from the lower esophageal sphincter to the terminal colon was removed. The bowel segments were opened along the mesenteric border. The tissue and luminal contents of the stomach, 10 equal segments of small intestine, the cecum, and 3 equal segments of colon were placed in individual Eppendorf tubes containing 1 ml of PBS. The tissue was vigorously mixed on a tabletop vortex, and solid materials were pelletized by centrifugation. Aliquots of the cleared supernatant were read in duplicate on a 96-well fluorescence plate reader to quantify the magnitude of the fluorescent signal in each segment of bowel.
These values were used to calculate the Geometric Center (REF), which is defined as the weighted average distribution of the fluorescent signal along the gastrointestinal tract: GC=Σ(% of total fluorescent signal per segment×segment number)/100,
Higher GC values represent faster rates of transit on scale of 1 to 15.
Surgical manipulation of the small bowel leads to a significant delay in gastrointestinal transit, going from a Geometric Center of 8.4 in normal mice to 3.3 in vehicle treated animals.

T1 sequence (P34972 whole entry): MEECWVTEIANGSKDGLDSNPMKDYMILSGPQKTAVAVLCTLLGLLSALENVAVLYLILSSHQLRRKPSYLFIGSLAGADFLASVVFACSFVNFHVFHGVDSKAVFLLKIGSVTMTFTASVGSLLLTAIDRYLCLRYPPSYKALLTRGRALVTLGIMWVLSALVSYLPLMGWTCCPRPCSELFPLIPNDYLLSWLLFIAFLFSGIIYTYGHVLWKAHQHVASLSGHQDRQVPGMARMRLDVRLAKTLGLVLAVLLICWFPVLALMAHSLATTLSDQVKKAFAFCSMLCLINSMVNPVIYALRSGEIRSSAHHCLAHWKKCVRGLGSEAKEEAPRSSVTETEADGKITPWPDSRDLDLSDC
T2 sequence (P21554 whole entry): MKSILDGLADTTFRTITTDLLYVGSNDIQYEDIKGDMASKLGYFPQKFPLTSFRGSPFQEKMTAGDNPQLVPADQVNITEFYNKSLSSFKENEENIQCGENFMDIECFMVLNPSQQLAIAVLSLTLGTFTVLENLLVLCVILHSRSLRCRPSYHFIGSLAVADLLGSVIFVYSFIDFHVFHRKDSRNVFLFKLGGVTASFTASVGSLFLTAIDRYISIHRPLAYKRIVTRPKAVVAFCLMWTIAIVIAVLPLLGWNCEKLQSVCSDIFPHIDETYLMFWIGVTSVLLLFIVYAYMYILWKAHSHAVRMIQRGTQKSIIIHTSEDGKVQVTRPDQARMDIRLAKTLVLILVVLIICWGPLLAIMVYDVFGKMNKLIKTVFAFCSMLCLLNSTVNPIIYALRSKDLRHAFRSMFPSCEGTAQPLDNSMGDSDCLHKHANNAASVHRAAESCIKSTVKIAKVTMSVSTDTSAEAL

Row | SMILES | pEC50 (CB2 receptor [1]) | pEC50 (CB1 receptor [2]) | CB1 receptor binding percent inhibition (CB1 receptor [3]) | CB2 receptor binding percent inhibition (CB2 receptor [4]) | pEC50 (CB1 receptor [5]) | pEC50 (CB2 receptor [6]) | pIC50 (CB1 receptor [3]; Cannabinoid CB1 Receptor Binding IC50, calculated by linear regression from percent inhibition at various test concentrations) | % Inh (Macro), % inhibition of colitis, macroscopic score (Male CD-1 mice [7]) [%] | pIC50 (CB2 receptor [4]; Cannabinoid CB2 Receptor Binding IC50, calculated by linear regression from percent inhibition at various test concentrations) | MPO-Positive Cells (Per 200× Optical Field) (Male CD-1 mice [8]) | Geometric Center (upper gastrointestinal transit) (Male CD-1 mice [9])
1 | C[C@H](NS(=O)(=O)/C=C/c1n[nH]c2c1CCCCC2Cc1cccc(F)c1)c1ccccc1 (single isomer, unassigned) [Cpd 233, (2E)-2-[(8S*)-8-(3-fluoro-benzyl)-1,4,5,6,7,8-hexahydro-cycloheptapyrazol-3-yl]-ethenesulfonic acid [(1S)-1-phenyl-ethyl]-amide] | ~5.89 | ~5.36 | ^(2)0% | ^(2)20% | – | – | – | – | – | – | –
2 | O=C(N[C@@H](CO)c1ccccc1)c1n[nH]c2c1CCCCC2Cc1cccc(Cl)c1 (stereo in doubt) [Cpd 229, (8R*)-8-(3-chloro-benzyl)-1,4,5,6,7,8-hexahydro-cycloheptapyrazole-3-carboxylic acid [(1R)-2-hydroxy-1-phenyl-ethyl]-amide] | – | – | 73% | 95% | 7.22 | 8.70 | 7.22 | 56.9 ± 11.6 | 7.70 | – | –
3 | C[C@@H]1C[C@H]2[C@@H]3CCC4=CC(=O)C=C[C@]4(C)[C@@]3(F)[C@@H](O)C[C@]2(C)[C@@]1(O)C(=O)CO [dexamethasone, reference compound] | – | – | – | – | – | – | – | – | – | 29.8 ± 3.9 | 6.0 ± 0.14

— patent US8378117B2 (priority 2005, dated 2013)
